“And” between values parts separate entries of the source, which are not always exact repeats. Equal entries are not always repeated.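 All cell lines were grown in 96-well plates and treated with compound for 48 hours. GI50 = concentration required for 50% inhibition of growth. TGI denotes the concentration required for complete inhibition of growth.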
What follows are compounds tested on HOP-18 NSCLC (assay: NCI tumour cell line growth inhibition, 48 h).

| Compound | GI50 | TGI |
| --- | --- | --- |
| N.N.N.N.N.[Cl-].[Co+3].c1ccc(-c2nn[n-]n2)cc1 | 93.1 µM | > 100 µM |
| COc1cccc2c1C(=O)c1c(O)c3c(c(O)c1C2=O)CC(O)(C(O)CO)CC3OC1CC(N2CCOCC2)C(O)C(C)O1 (configuration not stated) | – | 0.00797 µM |
| C1COCCN1.C1COCCN1.NC1CCCCC1N.[Cl-].[Pt+2] (configuration not stated) | > 100 µM | > 100 µM |
| COC1OC(CBr)C(OC(=O)c2ccccc2)C(O)C1Br (configuration not stated) | – | > 100 µM |
| O=C(NC(=O)c1cn(CCN(CCO)C(=O)NCCCCCCNC(=O)N(CCO)CCn2cc(C(=O)NC(=O)OCc3ccccc3)c(=O)[nH]c2=O)c(=O)[nH]c1=O)OCc1ccccc1 | – | > 100 µM |
| C=CCNC(=O)N(CCCC(NC(C)=O)C(=O)NCc1ccccc1)Cc1ccccc1 (configuration not stated) | – | > 100 µM |
| c1ccc(C(c2ccccc2)c2cccnc2)cc1 | – | > 100 µM |
| COC(=O)/C(=N\NC(=O)C[N+](C)(C)C)C(C(=O)OC)C(=O)C(=O)Nc1ccccc1C(N)=O (configuration not stated) | – | > 100 µM |
| O=c1c2ccccc2c(=O)n2n1CC=CC2 | – | > 100 µM |
| c1cc2n(n1)CCN2 | – | > 10000 µM |
| O=CN/C=C/c1cccc(O)c1 | – | > 100 µM |
| Nc1ccc2c(SCc3ccc([N+](=O)[O-])cc3)c3ccccc3nc2c1 | – | 26.5 µM |
| OCC1C(/C=C/c2ccoc2)ON2CCCC12 (configuration not stated) | – | 86 µM |
| O=C1C2C3C=C4c5ccccc5N(c5ccccc5)C4(C2C(=O)N1c1ccc(Cl)cc1)[C@H]1C(=O)N(c2ccc(Cl)cc2)C(=O)[C@@H]31 (some centres not stated) | – | > 100 µM |
| Cc1ccc([N+](=O)[O-])cc1NC(=O)/C(=N/NC(=S)NN)C1SC(=S)NC1=O (configuration not stated) | – | > 100 µM |
| CCN(CC)CCOc1ccc(CCc2cc(OC)c(OC)c(OC)c2)cc1 | – | > 100 µM |
| O=c1[nH]nc2ccccc2c1Cc1ccccc1 | – | > 100 µM |
| Cc1oc2c(C)c3oc(=O)cc(C)c3cc2c1CN1C(=O)C2OCCOCCOCCOCCOCCO[C@H]2C1=O (some centres not stated) | – | > 100 µM |

Each compound was assayed on XF 498 CNS (assay: NCI tumour cell line growth inhibition, 48 h).

| Compound | TGI |
| --- | --- |
| COc1cccc2c1C(=O)c1c(O)c3c(c(O)c1C2=O)CC(O)(C(O)CO)CC3OC1CC(N2CCOCC2)C(O)C(C)O1 (configuration not stated) | 0.0478 µM |
| COC1OC(CBr)C(OC(=O)c2ccccc2)C(O)C1Br (configuration not stated) | > 10 µM |
| C[C@]12CCC(=O)C=C1CC[C@@H]1C2CC[C@]2(C)Nc3c(cnn3-c3ccccc3)CC12 (some centres not stated) | > 100 µM |
| O=C(NC(=O)c1cn(CCN(CCO)C(=O)NCCCCCCNC(=O)N(CCO)CCn2cc(C(=O)NC(=O)OCc3ccccc3)c(=O)[nH]c2=O)c(=O)[nH]c1=O)OCc1ccccc1 | > 100 µM |
| CCOC1=C2C(=O)OC(=O)C2C2CCCCC2=C1 (configuration not stated) | > 100 µM |
| Cc1cc2c(C)nn(Cc3ccccc3)c2c(C(N)=O)c1C | > 100 µM |
| C=CCNC(=O)N(CCCC(NC(C)=O)C(=O)NCc1ccccc1)Cc1ccccc1 (configuration not stated) | > 100 µM |
| C1=CC=C2NCCCCCCCNC3=CC=CC=CC3=NCCCCCCCN=C2C=C1 | > 100 µM |
| O=C1Nc2nc3ccccc3n2N=C2CCCC12 (configuration not stated) | > 100 µM |
| c1cc2n(n1)CCN2 | 6960 µM |
| O=CN/C=C/c1cccc(O)c1 | > 100 µM |
| CC1CN(c2ccc(Cl)cc2)CC(C)OC(=O)O1 (configuration not stated) | > 100 µM |
| Nc1ccc2c(SCc3ccc([N+](=O)[O-])cc3)c3ccccc3nc2c1 | 27.7 µM |
| COCC(O)Cn1ccnc1[N+](=O)[O-] (configuration not stated) | > 100 µM |
| OCC1C(/C=C/c2ccoc2)ON2CCCC12 (configuration not stated) | > 100 µM |
| Cc1cc(NCCCCCCNc2cc(C)nc3cc(N(C)C)ccc23)c2ccc(N(C)C)cc2n1 | 59 µM |
| O=C1C2C3C=C4c5ccccc5N(c5ccccc5)C4(C2C(=O)N1c1ccc(Cl)cc1)[C@H]1C(=O)N(c2ccc(Cl)cc2)C(=O)[C@@H]31 (some centres not stated) | > 100 µM |
| Cc1ccc([N+](=O)[O-])cc1NC(=O)/C(=N/NC(=S)NN)C1SC(=S)NC1=O (configuration not stated) | > 100 µM |
| CCN(CC)CCOc1ccc(CCc2cc(OC)c(OC)c(OC)c2)cc1 | 57.7 µM |
| O=c1[nH]nc2ccccc2c1Cc1ccccc1 | > 100 µM |
| O=C(CC(=O)C1=CNc2ccccc2S1)C(=O)Nc1ccc(Cl)cc1 | > 50 µM |
| COC(=O)c1ccccc1OCc1cc(=O)oc2ccc(C)cc12 | 90.4 µM |

The compounds below were run on SN12K1 renal (assay: NCI tumour cell line growth inhibition, 48 h).

| Compound | TGI |
| --- | --- |
| c1cc2n(n1)CCN2 | 5980 µM |

Each compound was assayed on DMS 114 small cell lung (assay: NCI tumour cell line growth inhibition, 48 h).

| Compound | GI50 | TGI |
| --- | --- | --- |
| COc1cccc2c1C(=O)c1c(O)c3c(c(O)c1C2=O)CC(O)(C(O)CO)CC3OC1CC(N2CCOCC2)C(O)C(C)O1 (configuration not stated) | < 0.001 µM | – |
| C[C@]12CCC(=O)C=C1CC[C@@H]1C2CC[C@]2(C)Nc3c(cnn3-c3ccccc3)CC12 (some centres not stated) | – | > 100 µM |
| O=C(NC(=O)c1cn(CCN(CCO)C(=O)NCCCCCCNC(=O)N(CCO)CCn2cc(C(=O)NC(=O)OCc3ccccc3)c(=O)[nH]c2=O)c(=O)[nH]c1=O)OCc1ccccc1 | – | > 100 µM |
| CCOC1=C2C(=O)OC(=O)C2C2CCCCC2=C1 (configuration not stated) | – | > 100 µM |
| Cc1cc2c(C)nn(Cc3ccccc3)c2c(C(N)=O)c1C | – | > 100 µM |
| C=CCNC(=O)N(CCCC(NC(C)=O)C(=O)NCc1ccccc1)Cc1ccccc1 (configuration not stated) | – | > 100 µM |
| c1ccc(C(c2ccccc2)c2cccnc2)cc1 | – | > 100 µM |
| O=C1Nc2nc3ccccc3n2N=C2CCCC12 (configuration not stated) | – | > 100 µM |
| O=c1c2ccccc2c(=O)n2n1CC=CC2 | – | > 100 µM |
| c1cc2n(n1)CCN2 | – | > 8170 µM |
| O=CN/C=C/c1cccc(O)c1 | – | > 100 µM |
| CC1CN(c2ccc(Cl)cc2)CC(C)OC(=O)O1 (configuration not stated) | – | > 100 µM |
| Nc1ccc2c(SCc3ccc([N+](=O)[O-])cc3)c3ccccc3nc2c1 | – | 29.8 µM |
| COCC(O)Cn1ccnc1[N+](=O)[O-] (configuration not stated) | – | > 100 µM |
| O=C1C2C3C=C4c5ccccc5N(c5ccccc5)C4(C2C(=O)N1c1ccc(Cl)cc1)[C@H]1C(=O)N(c2ccc(Cl)cc2)C(=O)[C@@H]31 (some centres not stated) | – | > 100 µM |
| Cc1ccc([N+](=O)[O-])cc1NC(=O)/C(=N/NC(=S)NN)C1SC(=S)NC1=O (configuration not stated) | – | > 100 µM |
| CCN(CC)CCOc1ccc(CCc2cc(OC)c(OC)c(OC)c2)cc1 | – | 73.8 µM |
| O=c1[nH]nc2ccccc2c1Cc1ccccc1 | – | > 100 µM |
| O=C(CC(=O)C1=CNc2ccccc2S1)C(=O)Nc1ccc(Cl)cc1 | – | > 50 µM |
| Cc1oc2c(C)c3oc(=O)cc(C)c3cc2c1CN1C(=O)C2OCCOCCOCCOCCOCCO[C@H]2C1=O (some centres not stated) | – | > 100 µM |
| COC(=O)c1ccccc1OCc1cc(=O)oc2ccc(C)cc12 | – | > 100 µM |

What follows are compounds tested on P388/ADR leukemia (assay: NCI tumour cell line growth inhibition, 48 h).

| Compound | TGI |
| --- | --- |
| c1cc2n(n1)CCN2 | 4830 µM |

These compounds were tested on DMS 273 small cell lung (assay: NCI tumour cell line growth inhibition, 48 h).

| Compound | GI50 | TGI |
| --- | --- | --- |
| N.N.N.N.N.[Cl-].[Co+3].c1ccc(-c2nn[n-]n2)cc1 | > 100 µM | > 100 µM |
| COc1cccc2c1C(=O)c1c(O)c3c(c(O)c1C2=O)CC(O)(C(O)CO)CC3OC1CC(N2CCOCC2)C(O)C(C)O1 (configuration not stated) | – | 0.0109 µM and 0.0429 µM |
| COC1OC(CBr)C(OC(=O)c2ccccc2)C(O)C1Br (configuration not stated) | – | > 100 µM |
| C[C@]12CCC(=O)C=C1CC[C@@H]1C2CC[C@]2(C)Nc3c(cnn3-c3ccccc3)CC12 (some centres not stated) | – | > 100 µM |
| O=C(NC(=O)c1cn(CCN(CCO)C(=O)NCCCCCCNC(=O)N(CCO)CCn2cc(C(=O)NC(=O)OCc3ccccc3)c(=O)[nH]c2=O)c(=O)[nH]c1=O)OCc1ccccc1 | – | > 100 µM |
| CCOC1=C2C(=O)OC(=O)C2C2CCCCC2=C1 (configuration not stated) | – | > 100 µM |
| Cc1cc2c(C)nn(Cc3ccccc3)c2c(C(N)=O)c1C | – | > 100 µM |
| C=CCNC(=O)N(CCCC(NC(C)=O)C(=O)NCc1ccccc1)Cc1ccccc1 (configuration not stated) | – | > 100 µM |
| c1ccc(C(c2ccccc2)c2cccnc2)cc1 | – | > 100 µM |
| C1=CC=C2NCCCCCCCNC3=CC=CC=CC3=NCCCCCCCN=C2C=C1 | – | 39.9 µM |
| COC(=O)/C(=N\NC(=O)C[N+](C)(C)C)C(C(=O)OC)C(=O)C(=O)Nc1ccccc1C(N)=O (configuration not stated) | – | > 100 µM |
| O=C1Nc2nc3ccccc3n2N=C2CCCC12 (configuration not stated) | – | > 100 µM |
| O=c1c2ccccc2c(=O)n2n1CC=CC2 | – | > 100 µM |
| c1cc2n(n1)CCN2 | – | 2440 µM |
| O=CN/C=C/c1cccc(O)c1 | – | > 100 µM |
| CC1CN(c2ccc(Cl)cc2)CC(C)OC(=O)O1 (configuration not stated) | – | > 100 µM |
| Nc1ccc2c(SCc3ccc([N+](=O)[O-])cc3)c3ccccc3nc2c1 | – | 39.2 µM |
| COCC(O)Cn1ccnc1[N+](=O)[O-] (configuration not stated) | – | > 100 µM |
| OCC1C(/C=C/c2ccoc2)ON2CCCC12 (configuration not stated) | – | > 100 µM |
| Cc1cc(NCCCCCCNc2cc(C)nc3cc(N(C)C)ccc23)c2ccc(N(C)C)cc2n1 | – | 29.5 µM |
| O=C1C2C3C=C4c5ccccc5N(c5ccccc5)C4(C2C(=O)N1c1ccc(Cl)cc1)[C@H]1C(=O)N(c2ccc(Cl)cc2)C(=O)[C@@H]31 (some centres not stated) | – | > 100 µM |
| Cc1ccc([N+](=O)[O-])cc1NC(=O)/C(=N/NC(=S)NN)C1SC(=S)NC1=O (configuration not stated) | – | > 100 µM |
| CCN(CC)CCOc1ccc(CCc2cc(OC)c(OC)c(OC)c2)cc1 | – | 35.8 µM |
| O=c1[nH]nc2ccccc2c1Cc1ccccc1 | – | > 100 µM |
| O=C(CC(=O)C1=CNc2ccccc2S1)C(=O)Nc1ccc(Cl)cc1 | – | > 50 µM |
| Cc1oc2c(C)c3oc(=O)cc(C)c3cc2c1CN1C(=O)C2OCCOCCOCCOCCOCCO[C@H]2C1=O (some centres not stated) | – | > 100 µM |
| COC(=O)c1ccccc1OCc1cc(=O)oc2ccc(C)cc12 | – | > 100 µM |

What follows are compounds tested on SNB-78 CNS (assay: NCI tumour cell line growth inhibition, 48 h).

| Compound | GI50 | TGI |
| --- | --- | --- |
| N.N.N.N.N.[Cl-].[Co+3].c1ccc(-c2nn[n-]n2)cc1 | > 100 µM | > 100 µM |
| COc1cccc2c1C(=O)c1c(O)c3c(c(O)c1C2=O)CC(O)(C(O)CO)CC3OC1CC(N2CCOCC2)C(O)C(C)O1 (configuration not stated) | < 0.001 µM | 0.0323 µM and 0.188 µM |
| C1COCCN1.C1COCCN1.NC1CCCCC1N.[Cl-].[Pt+2] (configuration not stated) | > 100 µM | > 100 µM |
| COC1OC(CBr)C(OC(=O)c2ccccc2)C(O)C1Br (configuration not stated) | – | > 100 µM |
| C[C@]12CCC(=O)C=C1CC[C@@H]1C2CC[C@]2(C)Nc3c(cnn3-c3ccccc3)CC12 (some centres not stated) | – | > 100 µM |
| O=C(NC(=O)c1cn(CCN(CCO)C(=O)NCCCCCCNC(=O)N(CCO)CCn2cc(C(=O)NC(=O)OCc3ccccc3)c(=O)[nH]c2=O)c(=O)[nH]c1=O)OCc1ccccc1 | – | > 100 µM |

From PubChem BioAssay (NCI)
